These results are taken from ChEMBL document CHEMBL1681685, “A novel class of dual mPGES-1/5-LO inhibitors based on the α-naphthyl pirinixic acid scaffold” (Bioorg Med Chem Lett, 2011).

One test addresses T1, Prostaglandin E synthase (Homo sapiens, UniProt O14684).
T1 sequence (O14684 whole entry): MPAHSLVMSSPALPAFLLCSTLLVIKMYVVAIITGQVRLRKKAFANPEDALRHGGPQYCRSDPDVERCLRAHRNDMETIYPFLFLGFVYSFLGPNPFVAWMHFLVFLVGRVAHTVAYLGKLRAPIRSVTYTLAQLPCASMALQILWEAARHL
The experiment in a line: Inhibition of mPGES-1 expressed in […]-stimulated human A549 cells mitochondrial fraction assessed as conversion of PGH2 to PGE2. It is filed as cell-based.

Test [1] deals with T2, Polyunsaturated fatty acid 5-lipoxygenase (Homo sapiens, UniProt P09917).
T2 sequence (P09917 whole entry): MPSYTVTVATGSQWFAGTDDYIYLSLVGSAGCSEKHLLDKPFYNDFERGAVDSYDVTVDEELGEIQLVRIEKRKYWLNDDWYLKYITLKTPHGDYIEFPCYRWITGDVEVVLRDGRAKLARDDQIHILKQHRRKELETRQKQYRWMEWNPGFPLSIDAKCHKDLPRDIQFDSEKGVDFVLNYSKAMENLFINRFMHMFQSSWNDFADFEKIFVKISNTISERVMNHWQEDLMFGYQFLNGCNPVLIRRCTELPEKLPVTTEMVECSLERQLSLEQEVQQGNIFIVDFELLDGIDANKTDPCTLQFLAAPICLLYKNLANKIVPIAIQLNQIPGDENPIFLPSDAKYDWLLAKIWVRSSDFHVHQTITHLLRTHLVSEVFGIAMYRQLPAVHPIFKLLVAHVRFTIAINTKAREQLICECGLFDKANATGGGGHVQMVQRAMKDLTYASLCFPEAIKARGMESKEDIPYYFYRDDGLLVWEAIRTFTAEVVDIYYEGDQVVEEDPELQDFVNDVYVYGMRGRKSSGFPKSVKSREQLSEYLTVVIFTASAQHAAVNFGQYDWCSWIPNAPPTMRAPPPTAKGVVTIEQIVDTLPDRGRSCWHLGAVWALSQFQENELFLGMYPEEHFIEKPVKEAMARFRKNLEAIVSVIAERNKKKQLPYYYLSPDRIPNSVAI
As to the kind of experiment: Inhibition of human recombinant 5-lipoxygenase.

Test [2] deals with T2, Polyunsaturated fatty acid 5-lipoxygenase. As to the kind of experiment: Inhibition of 5-lipoxygenase in human PMNL.
Test [3] deals with T3, Prostaglandin E synthase (Homo sapiens) (UniProt O14684).
T3 sequence (whole entry): T1 sequence (O14684 whole entry)
As to the kind of experiment: Inhibition of mPGES-1 expressed in IL-1beta-stimulated human A549 cells mitochondrial fraction assessed as remaining activity at 10 uM.

Test [4] has as its target T4, Polyunsaturated fatty acid 5-lipoxygenase (Homo sapiens) (UniProt P09917).
T4 sequence (whole entry): T2 sequence (P09917 whole entry)
As to the kind of experiment: Inhibition of human recombinant 5-lipoxygenase assessed as remaining activity at 10 uM.

For test [5], the target named is T4, Polyunsaturated fatty acid 5-lipoxygenase (Homo sapiens). As to the kind of experiment: Inhibition of 5-lipoxygenase in human PMNL assessed as remaining activity at 10 uM.
Test [6] has as its target T3, Prostaglandin E synthase (Homo sapiens). As to the kind of experiment: Inhibition of mPGES-1 expressed in […]-stimulated human A549 cells mitochondrial fraction assessed as remaining activity at 10 uM. The format is cell-based.

Activity calls are given as the source filed them. The calls are words filed in the database; no cut-off is given here.

`O=C(O)C(Sc1nc(Cl)cc(Nc2ccc3c(c2)Cc2ccccc2-3)n1)c1cccc2ccccc12` (centres undefined): the IC50 (commonly the concentration that gives 50% inhibition) at Prostaglandin E synthase came out at 1550 nM; in test [1], 1.6 µM; in test [2] it was 240 nM.

Consider `O=C(O)C(Sc1nc(Cl)cc(Nc2ccc(Cc3ccccc3)cc2)n1)c1cccc2ccccc12` (centres undefined), for which the values for the IC50 (on Prostaglandin E synthase; in test [1]; in test [2]) were 1500 nM, 2.2 µM and 300 nM, respectively.

Turning to `O=C(O)C(Sc1nc(Cl)cc(Nc2cccc(Cl)c2)n1)c1cccc2ccccc12` (centres undefined), the Activity in test [3] came to 45.5%. For the same molecule, the IC50 in test [1] is 5 µM; in test [2], 700 nM.

With `CC(C)(C)c1cc(Nc2cc(Cl)nc(SC(C(=O)O)c3cccc4ccccc34)n2)cc(C(C)(C)C)c1` (centres undefined), the results for the IC50 (at Prostaglandin E synthase; in test [1]; in test [2]) were 900 nM, 1.9 µM and 260 nM, respectively.

Consider `O=C(O)C(Sc1nc(Cl)cc(Nc2ccc(Oc3ccccc3)cc2)n1)c1cccc2ccccc12` (centres undefined), for which the figures for the IC50 (on Prostaglandin E synthase; in test [1]; in test [2]) were 940 nM, 3.1 µM and 400 nM, respectively.

Take `O=C(O)C(Sc1nc(Cl)cc(NCCCc2ccccc2)n1)c1cccc2ccccc12` (centres undefined): the IC50 on Prostaglandin E synthase is 6100 nM; in test [2] it was 1800 nM. For the same molecule, the Activity in test [4] is 68.9%.

In the case of `O=C(O)C(Sc1nc(Cl)cc(Nc2ccc3ccccc3c2)n1)c1cccc2ccccc12` (centres undefined), the IC50 came out at 1900 nM at Prostaglandin E synthase, 2.9 µM in test [1] and 500 nM in test [2].

`O=C(O)C(Sc1nc(Cl)cc(Nc2cccc(-c3ccccc3)c2)n1)c1cccc2ccccc12` (centres undefined): the IC50 on Prostaglandin E synthase came out at 1900 nM; in test [1], 5 µM; in test [2], 500 nM.

Take `Cc1ccc(Nc2cc(Cl)nc(SC(C(=O)O)c3cccc4ccccc34)n2)cc1C` (centres undefined): the IC50 was 5700 nM at Prostaglandin E synthase, 8.5 µM in test [1] and 700 nM in test [2].

Turning to `CCCCNc1cc(Cl)nc(SC(C(=O)O)c2cccc3ccccc23)n1` (centres undefined), the figures for the Activity in test [3] and in test [4] were 90.2% and 70.6%, respectively. In test [2], the 50% inhibitory concentration (IC50) amounted to 2400 nM.

For the molecule `O=C(O)C(Sc1nc(Cl)cc(NCc2ccc(-c3ccccc3)cc2)n1)c1cccc2ccccc12` (centres undefined), the figures for the 50% inhibitory concentration (IC50) (at Prostaglandin E synthase; in test [1]; in test [2]) were 880 nM, 3 µM and 700 nM, respectively.

As to `O=C(O)C(Sc1nc(Cl)cc(Nc2ccc(C3CCCCC3)cc2)n1)c1cccc2ccccc12` (centres undefined), the 50% inhibitory concentration (IC50) came to 1450 nM on Prostaglandin E synthase, 2 µM in test [1] and 400 nM in test [2].

In the case of `O=C(Nc1ccc(Nc2cc(Cl)nc(SC(C(=O)O)c3cccc4ccccc34)n2)cc1)c1ccccc1` (centres undefined), the Activity in test [3] was found to be 38.8%. Moreover, the IC50 came to 5.2 µM in test [1] and 600 nM in test [2].

As to `O=C(O)C(Sc1nc(Cl)cc(NCCc2ccccc2)n1)c1cccc2ccccc12` (centres undefined), the Activity in test [3] was found to be 42.3%; in test [4], 44.2%. The molecule further yielded a 50% inhibitory concentration (IC50) in test [2] of 2500 nM.

Turning to `O=C(O)C(Sc1nc(Cl)cc(Nc2ccc3ncccc3c2)n1)c1cccc2ccccc12` (centres undefined), the Activity in test [3] was 49.1%; in test [4], 19%. The IC50 in test [2] turned out to be 4400 nM.

For `O=C(O)C(Sc1nc(Cl)cc(Nc2ccc(-c3ccccc3)cc2)n1)c1cccc2ccccc12` (centres undefined), the IC50 worked out at 940 nM on Prostaglandin E synthase, 2.3 µM in test [1] and 100 nM in test [2].

As to `Cc1cccc(Nc2cc(Cl)nc(SCC(=O)O)n2)c1C`, the result in test [3], in test [5] and in test [4] was inactive.

In the case of `O=C(O)C(Sc1nc(Cl)cc(Nc2ccc3c(c2)CCC3)n1)c1cccc2ccccc12` (centres undefined), the Activity in test [3] is 36.7%. Further, the IC50 in test [1] was found to be 4.2 µM; in test [2] it was 500 nM.

Consider `CC(C)c1ccc(Nc2cc(Cl)nc(SC(C(=O)O)c3cccc4ccccc34)n2)cc1` (centres undefined), for which the Activity in test [3] was found to be 35.8%. Also, the figures for the IC50 in test [1] and in test [2] were 5.8 µM and 260 nM, respectively.

For `O=C(O)C(Sc1nc(Cl)cc(Nc2ccc(Cl)cc2)n1)c1cccc2ccccc12` (centres undefined), the figures for the IC50 (on Prostaglandin E synthase; in test [1]; in test [2]) were 5100 nM, 8.9 µM and 800 nM, respectively.

Take `CC(C)CNc1cc(Cl)nc(SC(C(=O)O)c2cccc3ccccc23)n1` (centres undefined): the Activity was determined as 65.3% in test [6] and 54.8% in test [4]. The IC50 in test [2] was 2500 nM.

As to `N#Cc1ccc(-c2ccc(Nc3cc(Cl)nc(SC(C(=O)O)c4cccc5ccccc45)n3)cc2)cc1` (centres undefined), the values for the IC50 (at Prostaglandin E synthase; in test [1]; in test [2]) were 1600 nM, 2.3 µM and 170 nM, respectively.

For the molecule `O=C(O)C(Sc1nc(Cl)cc(Nc2ccc(F)cc2)n1)c1cccc2ccccc12` (centres undefined), the figures for the Activity in test [3] and in test [4] were 49.9% and 67.3%, respectively. In test [2], this molecule showed an IC50 of 3100 nM.
